How the values were obtained:
Experiment in all cases: KinaseProfiler off-target kinase profiling
Type in all cases: biochemical
Conditions in all cases: 10 μM, ATP near Km
GRK7 = biological target: T1, GRK7 (Homo sapiens, UniProt Q8WTQ7)
T1 construct: purchased Millipore, Inc. (KinaseProfiler service)
Procedure, shortened: (§1)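 Each kinase in the full panel was exposed to the compound at 10 μM under ATP conditions approximating that enzyme's Km. Two replicates were run, and their mean activity versus control is what is reported.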

MLK1 = biological target: T2, MLK1 (Homo sapiens, UniProt P80192)
T2 construct: purchased Millipore, Inc. (KinaseProfiler service)
T2 sequence (P80192 whole entry): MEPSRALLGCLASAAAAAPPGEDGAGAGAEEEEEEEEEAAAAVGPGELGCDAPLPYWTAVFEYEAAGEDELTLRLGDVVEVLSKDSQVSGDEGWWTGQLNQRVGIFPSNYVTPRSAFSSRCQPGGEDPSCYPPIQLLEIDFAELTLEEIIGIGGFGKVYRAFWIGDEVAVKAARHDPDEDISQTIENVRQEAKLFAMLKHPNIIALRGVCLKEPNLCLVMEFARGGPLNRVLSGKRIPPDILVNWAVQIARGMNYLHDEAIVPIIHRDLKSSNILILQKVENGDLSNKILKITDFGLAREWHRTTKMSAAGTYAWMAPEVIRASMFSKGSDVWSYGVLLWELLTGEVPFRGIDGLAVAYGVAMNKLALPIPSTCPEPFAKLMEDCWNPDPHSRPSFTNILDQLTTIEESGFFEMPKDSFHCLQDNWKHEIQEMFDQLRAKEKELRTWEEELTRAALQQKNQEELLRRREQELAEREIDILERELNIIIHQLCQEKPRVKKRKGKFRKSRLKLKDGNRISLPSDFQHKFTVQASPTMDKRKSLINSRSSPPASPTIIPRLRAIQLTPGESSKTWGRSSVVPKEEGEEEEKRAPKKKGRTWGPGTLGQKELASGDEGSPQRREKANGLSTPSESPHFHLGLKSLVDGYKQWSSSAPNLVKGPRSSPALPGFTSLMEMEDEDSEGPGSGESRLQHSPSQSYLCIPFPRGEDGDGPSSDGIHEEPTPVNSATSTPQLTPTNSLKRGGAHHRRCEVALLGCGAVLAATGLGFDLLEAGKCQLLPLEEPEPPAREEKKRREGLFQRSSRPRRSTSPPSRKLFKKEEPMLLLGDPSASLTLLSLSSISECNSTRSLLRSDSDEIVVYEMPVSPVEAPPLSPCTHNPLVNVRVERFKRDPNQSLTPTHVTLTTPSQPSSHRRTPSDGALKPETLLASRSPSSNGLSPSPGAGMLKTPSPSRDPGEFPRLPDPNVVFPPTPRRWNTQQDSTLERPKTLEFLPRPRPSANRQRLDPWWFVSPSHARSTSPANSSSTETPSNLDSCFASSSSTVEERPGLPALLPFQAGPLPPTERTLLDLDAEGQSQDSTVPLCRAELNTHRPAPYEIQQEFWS
Procedure, shortened: as §1

IGF-1R = biological target: T3, IGF-1R (Homo sapiens, UniProt P08069)
T3 construct: purchased Millipore, Inc. (KinaseProfiler service)
T3 sequence (P08069 31-1367): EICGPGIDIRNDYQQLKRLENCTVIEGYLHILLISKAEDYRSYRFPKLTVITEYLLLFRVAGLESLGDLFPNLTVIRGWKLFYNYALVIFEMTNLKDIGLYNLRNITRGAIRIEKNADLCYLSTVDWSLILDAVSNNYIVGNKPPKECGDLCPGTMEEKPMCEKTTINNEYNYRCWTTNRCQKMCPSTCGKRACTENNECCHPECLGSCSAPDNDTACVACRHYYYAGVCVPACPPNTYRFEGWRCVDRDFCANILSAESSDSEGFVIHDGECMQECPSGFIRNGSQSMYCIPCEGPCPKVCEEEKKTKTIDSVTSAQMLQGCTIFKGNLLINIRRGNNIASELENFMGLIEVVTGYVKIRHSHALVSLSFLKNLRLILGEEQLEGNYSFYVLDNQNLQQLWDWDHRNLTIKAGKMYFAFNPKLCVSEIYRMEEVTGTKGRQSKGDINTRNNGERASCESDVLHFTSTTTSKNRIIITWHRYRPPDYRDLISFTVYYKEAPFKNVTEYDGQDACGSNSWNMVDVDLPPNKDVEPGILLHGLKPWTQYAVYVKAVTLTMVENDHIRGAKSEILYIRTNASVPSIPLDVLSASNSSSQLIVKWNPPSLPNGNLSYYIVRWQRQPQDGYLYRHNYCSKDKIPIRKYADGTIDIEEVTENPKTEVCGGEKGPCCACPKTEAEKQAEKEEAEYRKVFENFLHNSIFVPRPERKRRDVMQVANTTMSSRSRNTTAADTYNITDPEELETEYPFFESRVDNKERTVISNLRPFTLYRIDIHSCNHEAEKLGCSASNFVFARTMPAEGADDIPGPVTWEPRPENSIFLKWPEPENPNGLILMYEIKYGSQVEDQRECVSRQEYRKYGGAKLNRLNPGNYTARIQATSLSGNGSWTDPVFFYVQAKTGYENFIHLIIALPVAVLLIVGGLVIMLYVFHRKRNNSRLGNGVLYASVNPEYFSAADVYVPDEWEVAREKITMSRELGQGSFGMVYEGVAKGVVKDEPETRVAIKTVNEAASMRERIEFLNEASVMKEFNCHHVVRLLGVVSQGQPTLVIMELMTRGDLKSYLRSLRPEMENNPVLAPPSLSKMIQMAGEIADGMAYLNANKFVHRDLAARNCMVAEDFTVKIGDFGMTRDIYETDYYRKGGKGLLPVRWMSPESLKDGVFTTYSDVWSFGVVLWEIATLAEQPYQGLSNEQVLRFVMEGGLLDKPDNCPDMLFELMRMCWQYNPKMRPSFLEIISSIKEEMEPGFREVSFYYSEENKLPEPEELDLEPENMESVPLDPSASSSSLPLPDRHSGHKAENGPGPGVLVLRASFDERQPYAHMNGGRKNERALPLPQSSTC
Procedure, shortened: as §1

NLK = biological target: T4, NLK (Homo sapiens, UniProt Q9UBE8)
T4 construct: purchased Millipore, Inc. (KinaseProfiler service)
Procedure, shortened: as §1

DCAMKL2 = biological target: T5, DCAMKL2 (Homo sapiens, UniProt Q8N568)
T5 construct: purchased Millipore, Inc. (KinaseProfiler service)
T5 sequence (Q8N568 whole entry): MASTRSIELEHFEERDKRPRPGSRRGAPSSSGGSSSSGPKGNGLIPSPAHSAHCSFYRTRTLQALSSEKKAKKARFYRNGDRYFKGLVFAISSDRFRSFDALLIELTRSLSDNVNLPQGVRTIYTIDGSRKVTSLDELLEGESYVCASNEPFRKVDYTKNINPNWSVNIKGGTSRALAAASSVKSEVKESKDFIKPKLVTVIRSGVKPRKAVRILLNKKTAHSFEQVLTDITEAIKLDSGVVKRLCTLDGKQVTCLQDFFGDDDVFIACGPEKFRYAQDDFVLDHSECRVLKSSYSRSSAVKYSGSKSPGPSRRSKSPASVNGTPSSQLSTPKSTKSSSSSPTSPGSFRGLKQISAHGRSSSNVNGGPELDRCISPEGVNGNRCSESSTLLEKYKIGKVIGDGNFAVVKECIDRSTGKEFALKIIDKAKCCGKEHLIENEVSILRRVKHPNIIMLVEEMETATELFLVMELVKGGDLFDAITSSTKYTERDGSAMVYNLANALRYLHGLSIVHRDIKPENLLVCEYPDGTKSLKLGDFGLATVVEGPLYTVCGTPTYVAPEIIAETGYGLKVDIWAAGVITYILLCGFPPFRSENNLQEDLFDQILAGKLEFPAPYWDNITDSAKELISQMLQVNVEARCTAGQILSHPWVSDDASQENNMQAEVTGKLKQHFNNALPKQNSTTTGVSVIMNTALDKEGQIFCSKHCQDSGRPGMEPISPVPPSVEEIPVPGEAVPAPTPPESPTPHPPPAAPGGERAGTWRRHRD
Procedure, shortened: as §1

PKCbetaII = biological target: T6, PKCbetaII (Homo sapiens, UniProt P05771)
T6 construct: purchased Millipore, Inc. (KinaseProfiler service)
Procedure, shortened: as §1

LKB1 = biological target: T7, LKB1 (Homo sapiens, UniProt Q15831)
T7 construct: purchased Millipore, Inc. (KinaseProfiler service)
Procedure, shortened: as §1

Ron = biological target: T8, Ron (Homo sapiens, UniProt Q04912)
T8 construct: purchased Millipore (KinaseProfiler service)
Procedure, shortened: as §1

Lyn = biological target: T9, Lyn (Homo sapiens, UniProt P07948)
T9 construct: purchased Millipore, Inc. (KinaseProfiler service)
Procedure, shortened: as §1

TNK2 = biological target: T10, TNK2 (Homo sapiens, UniProt Q07912)
T10 construct: purchased Millipore, Inc. (KinaseProfiler service)
Procedure, shortened: as §1

c-RAF = tested on: c-RAF
Procedure, shortened: as §1

CHK2 = biological target: T11, CHK2 (Homo sapiens, UniProt O96017)
T11 construct: purchased Millipore, Inc. (KinaseProfiler service)
Procedure, shortened: as §1

MSK1 = biological target: T12, MSK1 (Homo sapiens, UniProt O75582)
T12 construct: purchased Millipore, Inc. (KinaseProfiler service)
T12 sequence (O75582 whole entry): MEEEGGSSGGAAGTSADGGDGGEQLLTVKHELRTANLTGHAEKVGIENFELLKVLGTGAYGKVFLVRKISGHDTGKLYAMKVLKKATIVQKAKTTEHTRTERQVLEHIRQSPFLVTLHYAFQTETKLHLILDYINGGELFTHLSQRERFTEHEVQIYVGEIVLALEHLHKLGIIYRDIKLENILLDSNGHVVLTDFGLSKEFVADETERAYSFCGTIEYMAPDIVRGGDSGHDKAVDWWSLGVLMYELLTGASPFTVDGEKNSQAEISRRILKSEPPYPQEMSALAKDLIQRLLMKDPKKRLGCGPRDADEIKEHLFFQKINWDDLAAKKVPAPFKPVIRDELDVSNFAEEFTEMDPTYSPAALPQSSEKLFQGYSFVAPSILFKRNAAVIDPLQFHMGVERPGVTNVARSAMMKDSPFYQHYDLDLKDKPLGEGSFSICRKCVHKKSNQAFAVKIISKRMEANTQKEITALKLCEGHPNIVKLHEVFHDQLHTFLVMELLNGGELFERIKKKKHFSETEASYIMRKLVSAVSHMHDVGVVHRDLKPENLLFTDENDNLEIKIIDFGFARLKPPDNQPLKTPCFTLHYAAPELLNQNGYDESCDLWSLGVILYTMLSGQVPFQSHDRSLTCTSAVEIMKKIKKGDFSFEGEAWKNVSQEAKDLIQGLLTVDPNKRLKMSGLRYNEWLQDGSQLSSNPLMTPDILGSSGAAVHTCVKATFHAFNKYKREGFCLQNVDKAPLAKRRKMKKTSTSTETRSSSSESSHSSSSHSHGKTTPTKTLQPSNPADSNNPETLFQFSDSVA
Procedure, shortened: as §1

TAO3 = biological target: T13, TAO3 (Homo sapiens, UniProt Q9H2K8)
T13 construct: purchased Millipore, Inc. (KinaseProfiler service)
Procedure, shortened: as §1

MARK2 = biological target: T14, MARK2 (Homo sapiens, UniProt Q7KZI7)
T14 construct: purchased Millipore, Inc. (KinaseProfiler service)
Procedure, shortened: as §1

DMPK = biological target: T15, DMPK (Homo sapiens, UniProt Q09013)
T15 construct: purchased Millipore, Inc. (KinaseProfiler service)
T15 sequence (Q09013 whole entry): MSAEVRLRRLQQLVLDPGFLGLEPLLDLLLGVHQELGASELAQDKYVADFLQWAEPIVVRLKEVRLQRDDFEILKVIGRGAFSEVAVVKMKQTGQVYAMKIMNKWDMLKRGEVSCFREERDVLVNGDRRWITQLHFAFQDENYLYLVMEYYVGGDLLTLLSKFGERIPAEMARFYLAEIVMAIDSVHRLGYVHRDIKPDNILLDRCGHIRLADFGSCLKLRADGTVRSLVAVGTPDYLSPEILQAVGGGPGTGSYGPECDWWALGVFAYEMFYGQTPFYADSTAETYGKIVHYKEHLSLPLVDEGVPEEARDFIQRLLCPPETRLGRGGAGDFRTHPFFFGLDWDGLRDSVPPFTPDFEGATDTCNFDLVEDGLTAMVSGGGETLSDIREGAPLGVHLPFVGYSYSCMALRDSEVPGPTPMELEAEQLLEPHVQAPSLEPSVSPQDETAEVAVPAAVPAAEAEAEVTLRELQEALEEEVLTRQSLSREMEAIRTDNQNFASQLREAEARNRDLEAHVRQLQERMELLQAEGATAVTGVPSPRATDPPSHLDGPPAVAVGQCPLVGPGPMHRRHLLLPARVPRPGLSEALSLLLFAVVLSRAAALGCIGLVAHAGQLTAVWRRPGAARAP
Procedure, shortened: as §1

FAK = biological target: T16, FAK (Homo sapiens, UniProt Q05397)
T16 construct: purchased Millipore, Inc. (KinaseProfiler service)
Procedure, shortened: as §1

PDK1 = biological target: T17, PDK1 (Homo sapiens, UniProt O15530)
T17 construct: purchased Millipore, Inc. (KinaseProfiler service)
Procedure, shortened: as §1

ERK2 = biological target: T18, ERK2 (Homo sapiens, UniProt P28482)
T18 construct: purchased Millipore, Inc. (KinaseProfiler service)
Procedure, shortened: as §1

Plk2 = biological target: T19, Plk2 (Homo sapiens, UniProt Q9NYY3)
T19 construct: purchased Millipore (KinaseProfiler service)
Procedure, shortened: as §1

PKCgamma = biological target: T20, PKCgamma (Homo sapiens, UniProt P05129)
T20 construct: purchased Millipore, Inc. (KinaseProfiler service)
Procedure, shortened: as §1

CDK9/cyclinT1 = biological target: T21, CDK9/cyclinT1 (Homo sapiens, UniProt P50750)
T21 construct: purchased Millipore, Inc. (KinaseProfiler service)
Procedure, shortened: as §1

PTK5 = biological target: T22, PTK5 (Homo sapiens, UniProt P42685)
T22 construct: purchased Millipore (KinaseProfiler service)
Procedure, shortened: as §1

ERK1 = biological target: T23, ERK1 (Homo sapiens, UniProt P27361)
T23 construct: purchased Millipore, Inc. (KinaseProfiler service)
Procedure, shortened: as §1

CDK5/p35 = biological target: T24, CDK5/p35 (Homo sapiens, UniProt Q00535)
T24 construct: purchased Millipore, Inc. (KinaseProfiler service)
Procedure, shortened: as §1

Pim-3 = biological target: T25, Pim-3 (Homo sapiens, UniProt Q86V86)
T25 construct: purchased Millipore, Inc. (KinaseProfiler service)
Procedure, shortened: as §1

BrSK1 = biological target: T26, BrSK1 (Homo sapiens, UniProt Q8TDC3)
T26 construct: purchased Millipore, Inc. (KinaseProfiler service)
Procedure, shortened: as §1

eEF-2K = biological target: T27, eEF-2K (Homo sapiens, UniProt O00418)
T27 construct: purchased Millipore, Inc. (KinaseProfiler service)
Procedure, shortened: as §1

Rsk3 = biological target: T28, Rsk3 (Homo sapiens, UniProt Q15349)
T28 construct: purchased Millipore (KinaseProfiler service)
Procedure, shortened: as §1

EphA4 = biological target: T29, EphA4 (Homo sapiens, UniProt P54764)
T29 construct: purchased Millipore, Inc. (KinaseProfiler service)
Procedure, shortened: as §1

PKCmu = biological target: T30, PKCmu (Homo sapiens, UniProt Q15139)
T30 construct: purchased Millipore (KinaseProfiler service)
Procedure, shortened: as §1

CK1gamma3 = biological target: T31, CK1gamma3 (Homo sapiens, UniProt Q9Y6M4)
T31 construct: purchased Millipore, Inc. (KinaseProfiler service)
Procedure, shortened: as §1

Ros = biological target: T32, Ros (Homo sapiens, UniProt P08922)
T32 construct: purchased Millipore (KinaseProfiler service)
Procedure, shortened: as §1

ULK2 = biological target: T33, ULK2 (Homo sapiens, UniProt Q8IYT8)
T33 construct: purchased Millipore, Inc. (KinaseProfiler service)
Procedure, shortened: as §1

Rse = biological target: T34, Rse (Homo sapiens, UniProt Q06418)
T34 construct: purchased Millipore (KinaseProfiler service)
Procedure, shortened: as §1

AMPK(A1/B1/G1) = biological target: T35, AMPK(A1/B1/G1) (Homo sapiens, UniProt Q13131)
T35 construct: purchased Millipore, Inc. (KinaseProfiler service)
Procedure, shortened: as §1

NEK2 = biological target: T36, NEK2 (Homo sapiens, UniProt P51955)
T36 construct: purchased Millipore, Inc. (KinaseProfiler service)
T36 sequence (P51955 whole entry): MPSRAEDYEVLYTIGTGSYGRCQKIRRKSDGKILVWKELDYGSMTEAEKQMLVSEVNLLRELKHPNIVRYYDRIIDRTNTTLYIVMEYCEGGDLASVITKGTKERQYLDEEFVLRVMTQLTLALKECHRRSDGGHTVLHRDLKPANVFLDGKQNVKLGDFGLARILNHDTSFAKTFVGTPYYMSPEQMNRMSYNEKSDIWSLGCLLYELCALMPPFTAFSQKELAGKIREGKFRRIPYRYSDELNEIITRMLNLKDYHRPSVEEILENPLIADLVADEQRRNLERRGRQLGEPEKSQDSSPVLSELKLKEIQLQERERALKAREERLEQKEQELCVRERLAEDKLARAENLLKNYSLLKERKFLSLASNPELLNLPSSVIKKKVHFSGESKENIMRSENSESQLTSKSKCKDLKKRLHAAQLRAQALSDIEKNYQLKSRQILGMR
Procedure, shortened: as §1

Axl = biological target: T37, Axl (Homo sapiens, UniProt P30530)
T37 construct: purchased Millipore, Inc. (KinaseProfiler service)
Procedure, shortened: as §1

AKT2 = biological target: T38, AKT2 (Homo sapiens, UniProt P31751)
T38 construct: purchased Millipore, Inc. (KinaseProfiler service)
Procedure, shortened: as §1

TEC Activated = biological target: T39, TEC Activated (Homo sapiens, UniProt P42680)
T39 construct: purchased Millipore, Inc. (KinaseProfiler service)
Procedure, shortened: as §1

IGF-1R Activated = biological target: T40, IGF-1R Activated (Homo sapiens, UniProt P08069)
T40 construct: purchased Millipore, Inc. (KinaseProfiler service)
Procedure, shortened: as §1

Avg. POC (GRK7): 96.5 POC | Avg. POC (MLK1): 100 POC | Avg. POC (IGF-1R): 73 POC | Avg. POC (NLK): 99 POC | Avg. POC (DCAMKL2): 126.5 POC | Avg. POC (PKCbetaII): 106 POC | Avg. POC (LKB1): 105 POC | Avg. POC (Ron): 100 POC | Avg. POC (Lyn): 104.5 POC | Avg. POC (TNK2): 94.5 POC | Avg. POC (c-RAF): 118.5 POC | Avg. POC (CHK2): 138 POC | Avg. POC (MSK1): 121 POC | Avg. POC (TAO3): 103 POC | Avg. POC (MARK2): 98 POC | Avg. POC (DMPK): 105.5 POC | Avg. POC (FAK): 109.5 POC | Avg. POC (PDK1): 119.5 POC | Avg. POC (ERK2): 96 POC | Avg. POC (Plk2): 106 POC | Avg. POC (PKCgamma): 111 POC | Avg. POC (CDK9/cyclinT1): 109.5 POC | Avg. POC (PTK5): 111 POC | Avg. POC (ERK1): 115 POC | Avg. POC (CDK5/p35): 121 POC | Avg. POC (Pim-3): 98 POC | Avg. POC (BrSK1): 112.5 POC | Avg. POC (eEF-2K): 108 POC | Avg. POC (Rsk3): 107.5 POC | Avg. POC (EphA4): 106 POC | Avg. POC (PKCmu): 100.5 POC | Avg. POC (CK1gamma3): 112 POC | Avg. POC (Ros): 95.5 POC | Avg. POC (ULK2): 109 POC | Avg. POC (Rse): 102.5 POC | Avg. POC (AMPK(A1/B1/G1)): 108.5 POC | Avg. POC (NEK2): 91 POC | Avg. POC (Axl): 97 POC | Avg. POC (AKT2): 131 POC | Avg. POC (TEC Activated): 107 POC | Avg. POC (IGF-1R Activated): 100 POC
SMILES: COCCN1C[C@@H](NC(=O)Nc2c(-c3ccccc3)nc3c(C)nccn23)[C@H](c2ccc(F)c(F)c2)C1 [Example 20, 1-((3S,4R)-4-(3,4-difluorophenyl)-1-(2-methoxyethyl)pyrrolidin-3-yl)-3-(8-methyl-2-phenylimidazo[1,2-a]pyrazin-3-yl)urea]
